Target: T1, human FSH receptor (Homo sapiens, UniProt P23945)
T1 construct: expressed in transfected cells; host or cells: CHO cells (hFSHR clone 16)
T1 sequence (P23945 18-695): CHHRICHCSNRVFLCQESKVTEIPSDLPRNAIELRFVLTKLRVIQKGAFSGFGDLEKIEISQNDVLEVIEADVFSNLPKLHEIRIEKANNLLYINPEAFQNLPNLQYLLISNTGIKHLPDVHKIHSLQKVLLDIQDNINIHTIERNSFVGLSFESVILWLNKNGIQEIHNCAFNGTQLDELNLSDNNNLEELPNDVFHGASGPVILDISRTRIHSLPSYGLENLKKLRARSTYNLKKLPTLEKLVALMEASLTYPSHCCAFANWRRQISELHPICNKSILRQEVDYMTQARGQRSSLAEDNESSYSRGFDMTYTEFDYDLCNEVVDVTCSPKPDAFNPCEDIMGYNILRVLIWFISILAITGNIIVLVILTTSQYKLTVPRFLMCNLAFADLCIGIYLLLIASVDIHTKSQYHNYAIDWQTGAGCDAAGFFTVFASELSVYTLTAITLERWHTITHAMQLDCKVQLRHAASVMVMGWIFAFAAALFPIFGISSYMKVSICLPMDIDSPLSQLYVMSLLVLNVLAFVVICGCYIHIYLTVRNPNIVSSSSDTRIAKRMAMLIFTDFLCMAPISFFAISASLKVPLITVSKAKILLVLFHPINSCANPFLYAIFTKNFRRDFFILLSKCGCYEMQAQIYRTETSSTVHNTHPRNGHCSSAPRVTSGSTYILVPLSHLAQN
Assay: HTRF assay for measuring cAMP in cells (FSH antagonism)
Assay type: cell-based
Conditions: hFSHR clone 16 cells (CHO cells stably transfected with the human FSH receptor); in the presence of 1e-9 mol/l hFSH; 37° C. for 2 h; read-out: IC50, FSH antagonistic effect in the HTRF assay
Method: HTRF Assay for Measuring cAMP in Cells
The method is based on a competitive immunoassay between native cAMP, which has been produced by the cells, and cAMP which is labelled with cAMPD2 conjugate. The tracer binding was visualized by a monoclonal antibody, anti-cAMP labelled with cryptate [HTRF=homogeneous time-resolved fluorescence].
The specific signal is inversely proportional to the cAMP concentration of the samples employed.
The 665 nm/620 nm fluorescence ratio was evaluated.
The following material was used: 96-well plates for the tissue culture, 96-well plates with black edge and black base (e.g. Fluotrac 600 from Greiner), 96-well plates for the substance dilutions of polypropylene and cAMP Femtomolar (4000wells Kit, CIS Bio International # 62AM5PEJ).
The following reagents were used: BSA (bovine serum albumin) Fraction V protease-free, IBMX (3-isobutyl-1-methylxanthine), hFSH (human follicle stimulating hormone), Triton X-100 analytical grade, potassium fluoride analytical grade, G 418 (Geneticin) and Accutase.
Buffer 1 (washing and testing buffer) contained PBS, 1 mM CaCl2, 1 mM MgCl2, 0.2% glucose; 0.1% BSA, 1 mM IBMX.
Buffer 2 (2× lysis buffer) contained 1% Triton X-100 in PBS (without CaCl2 and MgCl2).
Buffer 3 (assay buffer) contained 50 mM potassium phosphate buffer (pH 7.0); 800 mM potassium fluoride; 0.2% BSA (always added fresh).
On day 1, the cells were seeded in 96-well plates (3×10^4 cells per well hFSHR clone 16 cells (CHO cells stably transfected with the human FSH receptor in 150 μl of medium). The next day, test substance dilutions were made up. For this purpose, all the substances were diluted in ice-cold buffer 1 (with or without hFSH), and the substance dilutions were placed on ice until applied to the cells.
The cell supernatant was then aspirated off, and the cells were washed 2× with 200 μl of buffer 1. The cells were treated with 60 μl of the appropriate substance concentrations at 37° C. for 2 h. The cells were then lysed with 60 μl of buffer 2 (put onto the supernatant) (on a plate shaker at RT for 30 min).
The test conjugates (cAMP-D2 and anti-cAMP cryptate, CIS Bio) were diluted in buffer 3 in accordance with the manufacturers' information. The actual mixture for measurement was pipetted into a black 96-well plate (in each case 15 μl of the cell lysate diluted with 35 μl of buffer 1; firstly 25 μl of cAMP-D2 conjugate were pipetted and, after 10 min, 25 μl of the anti-cAMP cryptate were added). This is followed by incubation at RT for 90 minutes. The measurement was carried out in a PheraStar (BMG).
Tissue Culture Conditions
Dose-effect curve (hFSH) for the human receptor: 1e-8, 3e-9, 1e-9, 3e-10, 1e-10, 3e-11, 1e-11, 3e-12 mol/l.
The test substances were employed in suitable dilutions in the absence (test for agonism) and in the presence of 1e-9 mol/l hFSH.
The values of the well ratio were averaged and then entered directly in SigmaPlot versus the concentrations. The maximum and minimum values were determined for each plate, and half the difference is to be regarded as IC50.

| IC50 [nM] | SMILES |
| --- | --- |
| 750 | CNC(=O)c1ccc(C#Cc2ccc(OC(C)C)c(C(=O)NC(CC#N)Cc3c[nH]c4ccccc34)c2)cc1 (stereo not shown) [Example 9, N-[2-Cyano-1-(1H-indol-3-ylmethyl)-ethyl]-2-isopropoxy-5-(4-methylcarbamoyl-phenylethynyl)-benzamide] |
| 3500 | CNC(=O)c1cccc(C#Cc2ccc(OC(C)C)c(C(=O)NC(CC#N)Cc3c[nH]c4ccccc34)c2)c1 (stereo not shown) [Example 10, N-[2-Cyano-1-(1H-indol-3-ylmethyl)-ethyl]-2-isopropoxy-5-(3-methylcarbamoyl-phenylethynyl)-benzamide] |
| 10000 | CNC(=O)c1ccccc1C#Cc1ccc(OC(C)C)c(C(=O)NC(CC#N)Cc2c[nH]c3ccccc23)c1 (stereo not shown) [Example 11, N-[2-Cyano-1-(1H-indol-3-ylmethyl)-ethyl]-2-isopropoxy-5-(2-methylcarbamoyl-phenylethynyl)-benzamide] |

The remaining lines, values behind:

| SMILES | IC50 [nM] |
| --- | --- |
| CNC(=O)c1cc(F)cc(-c2ccc(OC(C)C)c(C(=O)NC(CC#N)Cc3c[nH]c4ccccc34)c2)c1 (stereo not shown) [Example 1, 5′-Fluoro-4-isopropoxy-biphenyl-3,3′-dicarboxylic acid 3-{[2-cyano-1-(1H-indol-3-ylmethyl)-ethyl]-amide}3′-methylamide] | 3500 |
| Cc1cc(C(N)=O)ccc1C#Cc1ccc(OC(F)(F)F)c(C(=O)NC(CC#N)Cc2c[nH]c3ccccc23)c1 (stereo not shown) [Example 4, 5-(4-Carbamoyl-2-methylphenylethynyl)-N-[2-cyano-1-(1H-indol-3-ylmethyl)-ethyl]-2-trifluoromethoxy-benzamide] | 250 |
| CC(C)Oc1ccc(-c2ccc(C(=O)N3CCOCC3)c(Cl)c2)cc1C(=O)NC(CC#N)Cc1c[nH]c2ccccc12 (stereo not shown) [Example 6, 3′-Chloro-4-isopropoxy-4′-(morpholine-4-carbonyl)-biphenyl-3-carboxylic acid [2-cyano-1-(1H-indol-3-ylmethyl)-ethyl]-amide] | 80 |
| CC(C)Oc1ccc(C#Cc2ccc(C(N)=O)cc2)cc1C(=O)NC(CC#N)Cc1c[nH]c2ccccc12 (stereo not shown) [Example 8, 5-(4-Carbamoyl-phenylethynyl)-N-[2-cyano-1-(1H-indol-3-ylmethyl)-ethyl]-2-isopropoxy-benzamide] | 200 |

Reference: patent US20090069321A1, “CYANOMETHYL SUBSTITUTED N-ACYL TRYPTAMINES” (priority 2007, published 2009)
